The NIST ThermoML archive (doi:10.1016/j.jct.2013.04.021)

Experiment: xn = mol fraction of the nth substance listed
Settings: 101 kPa, Liquid; for mass density: Vibrating tube method; for speed of sound: fixed-path interferometer; for viscosity: Capillary tube (Ostwald / Ubbelohde) method

CCCCOCCO [2-butoxyethan-1-ol] + CCCCCCCCO
Settings	mass density [kg/m3]	speed of sound [m/s]	viscosity [mPa·s]
293.15 K, x1 = 0.053	828.488	1361.8	–
293.15 K, x1 = 0.105	831.623	1359	–
293.15 K, x1 = 0.167	835.443	1355.4	–
293.15 K, x1 = 0.2004	837.529	1353.2	–
293.15 K, x1 = 0.2561	841.092	1350.3	–
293.15 K, x1 = 0.3039	844.242	1347.8	–
293.15 K, x1 = 0.4046	851.133	1342.7	–
293.15 K, x1 = 0.5013	858.109	1338.2	–
293.15 K, x1 = 0.6004	865.629	1334	–
293.15 K, x1 = 0.7009	873.666	1330.3	–
293.15 K, x1 = 0.8027	882.262	1327	–
293.15 K, x1 = 0.852	886.596	1325.6	–
293.15 K, x1 = 0.9007	891.001	1324.4	–
293.15 K, x1 = 0.9512	895.736	1323.4	–
298.15 K, x1 = 0.053	825.018	1344.8	6.97
298.15 K, x1 = 0.1049	–	–	6.636
298.15 K, x1 = 0.105	828.108	1342.1	–
298.15 K, x1 = 0.167	831.899	1338.4	6.076
298.15 K, x1 = 0.2004	833.978	1336.4	5.882
298.15 K, x1 = 0.2561	837.535	1333.4	5.471
298.15 K, x1 = 0.3039	840.656	1330.9	5.254
298.15 K, x1 = 0.4046	847.482	1325.9	4.678
298.15 K, x1 = 0.5013	854.363	1321.3	4.286
298.15 K, x1 = 0.6004	861.773	1316.9	3.885
298.15 K, x1 = 0.7009	869.705	1313.2	3.588
298.15 K, x1 = 0.8027	878.21	1310	3.287
298.15 K, x1 = 0.852	882.514	1308.5	3.165
298.15 K, x1 = 0.9007	886.89	1307.5	3.04
298.15 K, x1 = 0.9512	891.594	1306.5	2.901
303.15 K, x1 = 0.053	821.521	1328.1	5.789
303.15 K, x1 = 0.1049	–	–	5.499
303.15 K, x1 = 0.105	824.6	1325.4	–
303.15 K, x1 = 0.167	828.337	1321.7	5.128
303.15 K, x1 = 0.2004	830.387	1319.7	4.946
303.15 K, x1 = 0.2561	833.89	1316.7	4.656
303.15 K, x1 = 0.3039	836.962	1314.2	4.44
303.15 K, x1 = 0.4046	843.721	1309.1	4.001
303.15 K, x1 = 0.5013	850.582	1304.5	3.647
303.15 K, x1 = 0.6004	857.95	1300.3	3.31
303.15 K, x1 = 0.7009	865.804	1296.5	3.045
303.15 K, x1 = 0.8027	874.181	1293.3	2.825
303.15 K, x1 = 0.852	878.409	1292	2.734
303.15 K, x1 = 0.9007	882.718	1290.8	2.661
303.15 K, x1 = 0.9512	887.379	1289.8	2.636
308.15 K, x1 = 0.053	818.004	1311.3	5.048
308.15 K, x1 = 0.1049	–	–	4.78
308.15 K, x1 = 0.105	821.021	1308.8	–
308.15 K, x1 = 0.167	824.71	1305.5	4.442
308.15 K, x1 = 0.2004	826.746	1303.3	4.298
308.15 K, x1 = 0.2561	830.229	1300.5	4.049
308.15 K, x1 = 0.3039	833.292	1298.2	3.878
308.15 K, x1 = 0.4046	839.998	1293.1	3.519
308.15 K, x1 = 0.5013	846.771	1288.7	3.229
308.15 K, x1 = 0.6004	854.07	1284.5	2.965
308.15 K, x1 = 0.7009	861.87	1280.5	2.753
308.15 K, x1 = 0.8027	870.213	1277	2.545
308.15 K, x1 = 0.852	874.403	1275.4	2.457
308.15 K, x1 = 0.9007	878.687	1274.1	2.369
308.15 K, x1 = 0.9512	883.226	1273	2.281
313.15 K, x1 = 0.053	814.437	1294.9	–
313.15 K, x1 = 0.105	817.45	1292.3	–
313.15 K, x1 = 0.167	821.134	1289.2	–
313.15 K, x1 = 0.2004	823.153	1287.3	–
313.15 K, x1 = 0.2561	826.589	1284.5	–
313.15 K, x1 = 0.3039	829.618	1282.2	–
313.15 K, x1 = 0.4046	836.231	1277.4	–
313.15 K, x1 = 0.5013	842.934	1273	–
313.15 K, x1 = 0.6004	850.161	1268.8	–
313.15 K, x1 = 0.7009	857.881	1264.7	–
313.15 K, x1 = 0.8027	866.131	1261.1	–
313.15 K, x1 = 0.852	870.301	1259.5	–
313.15 K, x1 = 0.9007	874.538	1258	–
313.15 K, x1 = 0.9512	879.067	1256.6	–

CCCCOCCO [2-butoxyethan-1-ol] + CCCCCCO
Settings	mass density [kg/m3]	speed of sound [m/s]	viscosity [mPa·s]
293.15 K, x1 = 0.0535	823.637	1320	–
293.15 K, x1 = 0.1046	827.82	1319.4	–
293.15 K, x1 = 0.1546	831.917	1319.1	–
293.15 K, x1 = 0.2054	836.077	1318.8	–
293.15 K, x1 = 0.253	839.982	1318.5	–
293.15 K, x1 = 0.2999	843.819	1318.3	–
293.15 K, x1 = 0.4044	852.353	1318.3	–
293.15 K, x1 = 0.5039	860.457	1318.5	–
293.15 K, x1 = 0.5932	867.724	1318.9	–
293.15 K, x1 = 0.7003	876.414	1319.6	–
293.15 K, x1 = 0.8019	884.63	1320.7	–
293.15 K, x1 = 0.8545	888.867	1321.4	–
293.15 K, x1 = 0.8987	892.418	1322	–
293.15 K, x1 = 0.9522	896.698	1322.8	–
298.15 K, x1 = 0.0535	820.01	1303.1	4.359
298.15 K, x1 = 0.1046	824.093	1302.6	4.133
298.15 K, x1 = 0.1546	828.161	1302.2	4.004
298.15 K, x1 = 0.2054	832.312	1301.8	3.821
298.15 K, x1 = 0.253	836.221	1301.6	3.691
298.15 K, x1 = 0.2999	840.066	1301.4	3.616
298.15 K, x1 = 0.4044	848.606	1301.3	3.464
298.15 K, x1 = 0.5039	856.686	1301.5	3.305
298.15 K, x1 = 0.5932	863.892	1301.8	3.139
298.15 K, x1 = 0.7003	872.492	1302.6	3.046
298.15 K, x1 = 0.8019	880.623	1303.6	2.996
298.15 K, x1 = 0.8545	884.811	1304.3	2.908
298.15 K, x1 = 0.8987	888.334	1305	2.897
298.15 K, x1 = 0.9522	892.569	1305.7	2.871
303.15 K, x1 = 0.0535	816.368	1286.3	3.706
303.15 K, x1 = 0.1046	820.503	1285.8	3.56
303.15 K, x1 = 0.1546	824.557	1285.5	3.421
303.15 K, x1 = 0.2054	828.676	1285.2	3.3
303.15 K, x1 = 0.253	832.536	1284.9	3.19
303.15 K, x1 = 0.2999	836.324	1284.8	3.1
303.15 K, x1 = 0.4044	844.739	1284.7	2.916
303.15 K, x1 = 0.5039	852.713	1284.8	2.781
303.15 K, x1 = 0.5932	859.852	1285.2	2.694
303.15 K, x1 = 0.7003	868.399	1285.9	2.631
303.15 K, x1 = 0.8019	876.485	1286.8	2.583
303.15 K, x1 = 0.8545	880.662	1287.4	2.573
303.15 K, x1 = 0.8987	884.162	1288	2.595
303.15 K, x1 = 0.9522	888.376	1288.7	2.613
308.15 K, x1 = 0.0535	812.694	1269.6	3.243
308.15 K, x1 = 0.1046	816.794	1269.2	3.12
308.15 K, x1 = 0.1546	820.816	1268.8	3.006
308.15 K, x1 = 0.2054	824.902	1268.6	2.896
308.15 K, x1 = 0.253	828.737	1268.3	2.807
308.15 K, x1 = 0.2999	832.499	1268.2	2.736
308.15 K, x1 = 0.4044	840.855	1268.1	2.597
308.15 K, x1 = 0.5039	848.772	1268.2	2.499
308.15 K, x1 = 0.5932	855.859	1268.6	2.43
308.15 K, x1 = 0.7003	864.345	1269.2	2.367
308.15 K, x1 = 0.8019	872.393	1270.1	2.311
308.15 K, x1 = 0.8545	876.541	1270.6	2.284
308.15 K, x1 = 0.8987	880.024	1271.1	2.275
308.15 K, x1 = 0.9522	884.199	1271.8	2.242
313.15 K, x1 = 0.0535	809.018	1253	–
313.15 K, x1 = 0.1046	813.092	1252.7	–
313.15 K, x1 = 0.1546	817.077	1252.4	–
313.15 K, x1 = 0.2054	821.127	1252.2	–
313.15 K, x1 = 0.253	824.921	1252	–
313.15 K, x1 = 0.2999	828.653	1251.9	–
313.15 K, x1 = 0.4044	836.942	1251.8	–
313.15 K, x1 = 0.5039	844.805	1251.9	–
313.15 K, x1 = 0.5932	851.852	1252.2	–
313.15 K, x1 = 0.7003	860.279	1252.7	–
313.15 K, x1 = 0.8019	868.245	1253.4	–
313.15 K, x1 = 0.8545	872.354	1253.9	–
313.15 K, x1 = 0.8987	875.803	1254.3	–
313.15 K, x1 = 0.9522	879.956	1254.9	–
